In patent US20250122146A1, “COMPOUNDS FOR REDUCING NEUROINFLAMMATION” (THE SCRIPPS RESEARCH INSTITUTE, priority 2021, published 2025):
“Also recorded” adds a separate entry of the source.

Legend:
Nrf2/ARE pathway = details: literature statement; cited from earlier work
[1] = test system: neural damage / oxidative stress; details: literature statement; cited from earlier work
[2] = test system: human iPSC-derived microglia (hiMG); experiment: IL-1β release (NLRP3 inflammasome activation) from hiMG exposed to oligomeric Aβ and αSyn with their antibodies, ELISA; assay type: cell-based; details: oligomeric Aβ (~500 nM oligomers) + oligomeric αSyn (~100 nM) with anti-αSyn & anti-Aβ antibodies; carnosic acid 0.1-10 μM; n=3 per group
Method: (§1) Proinflammatory microglial activation. Following a protocol adapted from D. Trudler et al. (2021), human induced pluripotent stem cell (hiPSC)-derived microglia (hiMG) were plated at a concentration of 1×10^6 cells/mL. 16 h before the experiment the cell medium was changed to IMDM (no supplements added). Carnosic acid (CA, purity >99%) was added 16 hours before the experiment, at a concentration of 2 μM. Recombinant αSyn oligomers (100 nM) and oligomeric Aβ (10 μM) were incubated with 2.5 μg/mL of their respective antibodies for 1 h prior to adding to hiMG for additional 6 hours. Media was collected and cytokine levels, IL-1β or tumor necrosis factor (TNF), were measured by ELISA per the manufacturer's instructions.
(§2) Carnosic Acid Reduces Neuroinflammation Induced by Antibody-Misfolded Protein Complex. NLRP3 inflammasome activation was assessed by measuring the release of the proinflammatory cytokine interleukin-1β (IL-1β) from hiMG exposed to (A) oligomeric Aβ (500 nM oligomers) and low concentrations of oligomeric αSyn (100 nM), (B) Aβ and αSyn with their cognate human antibodies (anti-Aβ and anti-αSyn, respectively), and (C) same as (B) with carnosic acid.

[3] = test system: HSF-1 and Nrf2 transcription pathways; details: literature statement (Satoh et al. 2015); cited from earlier work
[4] = test system: human iPSC-derived microglia (hiMG); experiment: TNF release from hiMG exposed to oligomeric Aβ and αSyn with their antibodies, ELISA; assay type: cell-based; details: oligomeric Aβ (~750 nM oligomers) + oligomeric αSyn (~100 nM) with anti-αSyn & anti-Aβ antibodies; carnosic acid 2 μM; n=3 per group
Method: as §1, §2

Row | SMILES | activation of the Nrf2/ARE pathway (Nrf2/ARE pathway) | neuroprotective effect [1] | IL-1β release from hiMG [2] | activation of HSF-1 and Nrf2 transcription pathways [3] | TNF release from hiMG [4]
1 | C=C1CC[C@@H]2C(C)(C)CCCC2(C)C1Cc1cc(O)ccc1O (stereo partly shown) [Zonarol, zonarol] | activate the Nrf2/ARE pathway | exert neuroprotective effects against oxidative stress |  |  | 
2 | CC(C)c1cc2c(c(O)c1O)[C@@]1(C(=O)O)CCCC(C)(C)[C@@H]1CC2 [Carnosic acid, carnosic acid] | activates the Nrf2/ARE pathway | affording protection against neural damage | significantly reduced IL-1β release; also recorded: reduction in IL-1β | activates both the HSF-1 and Nrf2 transcription pathways | significantly reduced TNF release; also recorded: significantly reduced the type of inflammation
